Results published in PubChem BioAssay AID2060889 (Molecular Pharmacology Branch, DTP, NCI, 2025).
One block for each compound: values may come before it.

System: LG0567-F671-PDC complex spheroids viability
Experiment: Anticancer human tumor LG0567-F671-PDC patient-derived lung adenocarcinoma cell line growth inhibition [RAS]
Settings: for IC50: curve of first compound; for viability, T/C: stronger effect = lower value
Outline: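 Multi-cell-type spheroids: tumor cells plus HUVEC endothelial cells and mesenchymal stem cells. RAS-pathway inhibitors were combined with targeted agents, each dosed in half-log steps down from clinical Cmax, or from 10 microM when Cmax was unknown.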
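Also: spheroids exposed to compound for seven days before readout.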
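For IC50 in this document: luminescence signal used as a proxy for viable cells.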

IC50 (second compound 0.0316 µM): > 1000 nM
IC50 (second compound 0.1 µM): > 1000 nM
IC50 (second compound 0.316 µM): 13.1 nM
IC50 (second compound 1 µM): < 3.16 nM
IC50 (second compound 3.16 µM): < 3.16 nM
IC50 (second compound 10 µM): < 3.16 nM
SMILES: CCN1CCN(Cc2ccc(Nc3ncc(F)c(-c4cc(F)c5nc(C)n(C(C)C)c5c4)n3)nc2)CC1 + C#Cc1c(F)ccc2cc(O)cc(-c3ncc4c(N5CC6CCC(C5)N6)nc(OCC56CCCN5CC(F)C6)nc4c3F)c12
viability, T/C (second compound 0.0316 µM, first compound 0.00316 µM): 83.8%
viability, T/C (second compound 0.0316 µM, first compound 0.01 µM): 77.1%
viability, T/C (second compound 0.0316 µM, first compound 0.0316 µM): 72.8%
viability, T/C (second compound 0.0316 µM, first compound 0.1 µM): 71.8%
viability, T/C (second compound 0.0316 µM, first compound 0.316 µM): 61.1%
viability, T/C (second compound 0.0316 µM, first compound 1 µM): 50.3%
viability, T/C (second compound 0.1 µM, first compound 0.00316 µM): 75.9%
viability, T/C (second compound 0.1 µM, first compound 0.01 µM): 75%
viability, T/C (second compound 0.1 µM, first compound 0.0316 µM): 62.2%
viability, T/C (second compound 0.1 µM, first compound 0.1 µM): 59.1%
viability, T/C (second compound 0.1 µM, first compound 0.316 µM): 57.4%
viability, T/C (second compound 0.1 µM, first compound 1 µM): 50.7%
viability, T/C (second compound 0.316 µM, first compound 0.00316 µM): 54.4%
viability, T/C (second compound 0.316 µM, first compound 0.01 µM): 52.6%
viability, T/C (second compound 0.316 µM, first compound 0.0316 µM): 46.8%
viability, T/C (second compound 0.316 µM, first compound 0.1 µM): 44.4%
viability, T/C (second compound 0.316 µM, first compound 0.316 µM): 36%
viability, T/C (second compound 0.316 µM, first compound 1 µM): 39.1%
viability, T/C (second compound 1 µM, first compound 0.00316 µM): 37.8%
viability, T/C (second compound 1 µM, first compound 0.01 µM): 34.5%
viability, T/C (second compound 1 µM, first compound 0.0316 µM): 30.9%
viability, T/C (second compound 1 µM, first compound 0.1 µM): 27.1%
viability, T/C (second compound 1 µM, first compound 0.316 µM): 28.4%
viability, T/C (second compound 1 µM, first compound 1 µM): 27.3%
viability, T/C (second compound 3.16 µM, first compound 0.00316 µM): 20.7%
viability, T/C (second compound 3.16 µM, first compound 0.01 µM): 18.2%
viability, T/C (second compound 3.16 µM, first compound 0.0316 µM): 20%
viability, T/C (second compound 3.16 µM, first compound 0.1 µM): 17%
viability, T/C (second compound 3.16 µM, first compound 0.316 µM): 19.7%
viability, T/C (second compound 3.16 µM, first compound 1 µM): 18.2%
viability, T/C (second compound 10 µM, first compound 0.00316 µM): 11.4%
viability, T/C (second compound 10 µM, first compound 0.01 µM): 10.8%
viability, T/C (second compound 10 µM, first compound 0.0316 µM): 13.1%
viability, T/C (second compound 10 µM, first compound 0.1 µM): 10.7%
viability, T/C (second compound 10 µM, first compound 0.316 µM): 13.4%
viability, T/C (second compound 10 µM, first compound 1 µM): 16.4%

IC50 (second compound 0.000949 µM): < 31.6 nM
IC50 (second compound 0.003 µM): < 31.6 nM
IC50 (second compound 0.00949 µM): < 31.6 nM
IC50 (second compound 0.03 µM): < 31.6 nM
IC50 (second compound 0.0949 µM): < 31.6 nM
IC50 (second compound 0.3 µM): < 31.6 nM
SMILES: CCC(CC)c1cc(NC2CCC(N)C2)n2nccc2n1 (centres undefined) + CCn1c(-c2cc(N3CCN(C)CC3)cnc2C(C)OC)c2c3cc(ccc31)-c1csc(n1)CC(NC(=O)C1CC1C)C(=O)N1CCCC(N1)C(=O)OCC(C)(C)C2
viability, T/C (second compound 0.000949 µM, first compound 0.0316 µM): 23.1%
viability, T/C (second compound 0.000949 µM, first compound 0.1 µM): 23.2%
viability, T/C (second compound 0.000949 µM, first compound 0.316 µM): 25.9%
viability, T/C (second compound 0.000949 µM, first compound 1 µM): 22.7%
viability, T/C (second compound 0.000949 µM, first compound 3.16 µM): 0.34%
viability, T/C (second compound 0.000949 µM, first compound 10 µM): 0.1%
viability, T/C (second compound 0.003 µM, first compound 0.0316 µM): 10.8%
viability, T/C (second compound 0.003 µM, first compound 0.1 µM): 9.27%
viability, T/C (second compound 0.003 µM, first compound 0.316 µM): 10.1%
viability, T/C (second compound 0.003 µM, first compound 1 µM): 9.94%
viability, T/C (second compound 0.003 µM, first compound 3.16 µM): 0.21%
viability, T/C (second compound 0.003 µM, first compound 10 µM): 0.08%
viability, T/C (second compound 0.00949 µM, first compound 0.0316 µM): 6.93%
viability, T/C (second compound 0.00949 µM, first compound 0.1 µM): 7.19%
viability, T/C (second compound 0.00949 µM, first compound 0.316 µM): 6.29%
viability, T/C (second compound 0.00949 µM, first compound 1 µM): 4.74%
viability, T/C (second compound 0.00949 µM, first compound 3.16 µM): 0.26%
viability, T/C (second compound 0.00949 µM, first compound 10 µM): 0.09%
viability, T/C (second compound 0.03 µM, first compound 0.0316 µM): 4.43%
viability, T/C (second compound 0.03 µM, first compound 0.1 µM): 3.65%
viability, T/C (second compound 0.03 µM, first compound 0.316 µM): 3.4%
viability, T/C (second compound 0.03 µM, first compound 1 µM): 2.31%
viability, T/C (second compound 0.03 µM, first compound 3.16 µM): 0.18%
viability, T/C (second compound 0.03 µM, first compound 10 µM): 0.09%
viability, T/C (second compound 0.0949 µM, first compound 0.0316 µM): 2.75%
viability, T/C (second compound 0.0949 µM, first compound 0.1 µM): 2.83%
viability, T/C (second compound 0.0949 µM, first compound 0.316 µM): 2.71%
viability, T/C (second compound 0.0949 µM, first compound 1 µM): 1.9%
viability, T/C (second compound 0.0949 µM, first compound 3.16 µM): 0.21%
viability, T/C (second compound 0.0949 µM, first compound 10 µM): 0.11%
viability, T/C (second compound 0.3 µM, first compound 0.0316 µM): 2.39%
viability, T/C (second compound 0.3 µM, first compound 0.1 µM): 2.56%
viability, T/C (second compound 0.3 µM, first compound 0.316 µM): 2.39%
viability, T/C (second compound 0.3 µM, first compound 1 µM): 1.46%
viability, T/C (second compound 0.3 µM, first compound 3.16 µM): 0.22%
viability, T/C (second compound 0.3 µM, first compound 10 µM): 0.15%
